Source: US20240174690A1, “ANNULATED 2-AMINO-3-CYANO THIOPHENES AND DERIVATIVES FOR THE TREATMENT OF CANCER” (BOEHRINGER INGELHEIM INTERNATIONAL GMBH, priority 2021, published 2024)
pIC50: −log10 of the molar value. Like-named read-outs stand apart in the source and are kept apart here.

Assays:
NCI-H358 cells = assay: NCI-H358 CTG proliferation assay (120 h) (NSCLC, G12C); assay type: cell-based, human; settings: Homo sapiens
Method in brief: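 NCI-H358 cells (KRAS G12C) were seeded at 2000/well (assay 1) or 200/well (assay 2) in RPMI-1640 + 10% FCS and dosed with a logarithmic series, DMSO-normalized. After 120 h, viability was read by CellTiter-Glo luminescence as percent of DMSO control, with a T0 read at dosing. IC50 came from a four-parameter fit.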

NCI-H2122 cells = assay: NCI-H2122 CTG proliferation assay (120 h) (NSCLC, G12C); assay type: cell-based; settings: Homo sapiens
Method in brief: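 NCI-H2122 cells (KRAS G12C NSCLC), 200 per well in RPMI with 10% FCS, were dosed with compound on day 1 and incubated 120 h at 37 °C. Viability was read by CellTiter-Glo luminescence as percent of DMSO control, and IC50 was fitted with a four-parameter model.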

[1] = Metabolic (microsomal) stability assay, human liver microsomes (HLM); assay type: in vitro ADME; settings: predicted clearance as percent of liver blood flow, 1 μM
Method in brief: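 LC-MS/MS tracked parent disappearance at 0, 5, 15, 30 and 60 min in NADPH-initiated incubations with 1 mg/mL human microsomal protein and 1 μM compound at 37°C, pH 7.5. First-order fits gave intrinsic clearance, which was scaled up and reported as % QH. NADPH-free controls were also run.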

[2] = Plasma protein binding assay (PPB), equilibrium dialysis, 10% FCS in PBS; assay type: in vitro ADME; settings: bovine, read-out: PPB 10% FCS (% fu)
Method in brief: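 Equilibrium dialysis (5-10 kg/mol cut-off membrane) of 1-10 μmol/L test compound in 10% FCS/PBS against PBS with or without dextran, 3-5 h at 37° C. Compound in each chamber quantified by LC-MS after protein precipitation; fu calculated from Cserum and Cbuffer.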

[3] = assay 2, CTG, read-out: H358 (assay 2) IC50
[4] = assay 1, CTG, read-out: H358 (assay 1) IC50

| SMILES | pIC50 (NCI-H358 cells; [3]) | pIC50 (NCI-H2122 cells) | HLM QH [1] [%] | fraction unbound [2] | pIC50 (NCI-H358 cells; [4]) |
| --- | --- | --- | --- | --- | --- |
| C[C@H](Oc1cc(-n2ccnc2)nc(-c2onc3c2CCC[C@@]32CCCc3sc(N)c(C#N)c32)n1)[C@@H]1CCCN1C [I-20] | 6.54 | 5.87 | 30 | 0.58 |  |
| C[C@H](Oc1cc(N2CCN(C)C3(CCC3)C2)nc(-c2onc3c2CCC[C@@]32CCCc3sc(N)c(C#N)c32)n1)[C@@H]1CCCN1C [I-44] | 5.63 | 5.89 | <24 | 0.22 |  |
| C[C@H](Oc1cc([C@@H]2CCOC2)nc(-c2onc3c2CCC[C@@]32CCCc3sc(N)c(C#N)c32)n1)[C@@H]1CCCN1C [I-22] | 8.00 | 4.99 | 37 | 0.38 | 7.51 |
| Cc1ccc(-c2cc(O[C@@H](C)[C@@H]3CCCN3C)nc(-c3onc4c3CCC[C@@]43CCCc4sc(N)c(C#N)c43)n2)cn1 [I-28] | 6.62 | 5.58 | <24 | 0.3 |  |
| C[C@H](Oc1cc(Cl)nc(-c2onc3c2CCC[C@@]32CCCc3sc(N)c(C#N)c32)n1)[C@@H]1CCCN1C [I-1] | 6.24 | 5.39 | 79 | 0.53 |  |
| C[C@H](Oc1cc(N2CCNC3(COC3)C2)nc(-c2onc3c2CCC[C@@]32CCCc3sc(N)c(C#N)c32)n1)[C@@H]1CCCN1C [I-4] | 6.13 | 5.43 | <24 |  |  |
| Cc1nc(-c2cc(O[C@@H](C)[C@@H]3CCCN3C)nc(-c3onc4c3CCC[C@@]43CCCc4sc(N)c(C#N)c43)n2)cs1 [I-24] | 6.79 | 6.03 | <24 | 0.19 |  |
| C[C@H](Oc1cc(-n2ccnn2)nc(-c2onc3c2CCC[C@@]32CCCc3sc(N)c(C#N)c32)n1)[C@@H]1CCCN1C [I-32] | 6.52 | 5.82 | 45 | 0.48 |  |
| CO[C@@H]1C[C@@H]([C@H](C)Oc2cc(-c3ccn(C)n3)nc(-c3onc4c3CCC[C@@]43CCCc4sc(N)c(C#N)c43)n2)N(C)C1 [I-23] |  | 5.05 | 45 | 0.2 | 9.00 |
| C[C@H](Oc1cc(-c2ccn(CC(C)(C)O)n2)nc(-c2onc3c2CCC[C@@]32CCCc3sc(N)c(C#N)c32)n1)[C@@H]1CCCN1C [I-26] | 6.85 | 5.97 | <24 | 0.23 |  |
| C[C@H](Oc1cc(N2C[C@H](C)N(C)[C@@H](C)C2)nc(-c2onc3c2CCC[C@@]32CCCc3sc(N)c(C#N)c32)n1)[C@@H]1CCCN1C [I-43] |  | 5.85 | <24 | 0.73 |  |

Continued, values first:

| pIC50 (NCI-H358 cells; [3]) | pIC50 (NCI-H2122 cells) | HLM QH [1] [%] | fraction unbound [2] | pIC50 (NCI-H358 cells; [4]) | SMILES |
| --- | --- | --- | --- | --- | --- |
| 5.69 | 5.70 | <24 | 0.34 |  | C[C@H](Oc1cc(N2CC[C@@H](N(C)C)C2)nc(-c2noc3c2CCC[C@@]32CCCc3sc(N)c(C#N)c32)n1)[C@@H]1CCCN1C [II-47] |
| 8.40 | 6.89 | <24 | 0.24 | 8.00 | C[C@H](Oc1cc(-n2ccc(C(N)=O)n2)nc(-c2noc3c2CCC[C@@]32CCCc3sc(N)c(C#N)c32)n1)[C@@H]1CCCN1C [II-21] |
| 8.40 | 5.53 | <24 | 0.03 |  | CCOC(=O)c1ccn(-c2cc(O[C@@H](C)[C@@H]3CCCN3C)nc(-c3noc4c3CCC[C@@]43CCCc4sc(N)c(C#N)c43)n2)n1 [II-23] |
| 7.36 | 6.05 | 44 | 0.05 | 6.95 | C[C@H](Oc1cc(-c2ccn(C)n2)nc(-c2noc3c2CCC[C@@]32CCCc3sc(N)c(C#N)c32)n1)[C@@H]1C[C@@H](F)CN1C [II-27] |
| 6.34 | 5.32 | <24 | 0.77 |  | CN[C@H]1CCN(c2cc(O[C@@H](C)[C@@H]3CCCN3C)nc(-c3noc4c3CCC[C@@]43CCCc4sc(N)c(C#N)c43)n2)C1 [II-35] |
| 8.70 | 5.69 | <24 | 0.14 | 8.22 | CNC(=O)c1ccn(-c2cc(O[C@@H](C)[C@@H]3CCCN3C)nc(-c3noc4c3CCC[C@@]43CCCc4sc(N)c(C#N)c43)n2)n1 [II-20] |
| 8.70 | 7.72 | 30 | 0.04 | 7.77 | C[C@H](Oc1cc(-n2ccc(C(=O)N3CCCC3)n2)nc(-c2noc3c2CCC[C@@]32CCCc3sc(N)c(C#N)c32)n1)[C@@H]1CCCN1C [II-19] |
| 5.67 | 5.51 | <24 | 0.62 |  | C[C@H](Oc1cc(N2CCC(N(C)C)CC2)nc(-c2noc3c2CCC[C@@]32CCCc3sc(N)c(C#N)c32)n1)[C@@H]1CCCN1C [II-48] |
| 5.89 | 5.85 | <24 | 0.53 |  | C[C@H](Oc1cc(N2CCNC3(CCC3)C2)nc(-c2noc3c2CCC[C@@]32CCCc3sc(N)c(C#N)c32)n1)[C@@H]1CCCN1C [II-40] |
| < 4.60 | 4.97 |  | 0.61 | 6.01 | C[C@H](Oc1cc(N2CCNCC2)nc(-c2noc3c2CCC[C@@]32CCCc3sc(N)c(C#N)c32)n1)[C@@H]1CCCN1C [II-45] |
| 5.82 | 5.78 | <24 | 0.1 |  | C[C@H](Oc1cc(N2CCNC3(CCCC3)C2)nc(-c2noc3c2CCC[C@@]32CCCc3sc(N)c(C#N)c32)n1)[C@@H]1CCCN1C [II-41] |
| 6.84 | 5.59 | 42 | 0.63 |  | C[C@H](Oc1cc(N2CCNC3(COC3)C2)nc(-c2noc3c2CCC[C@@]32CCCc3sc(N)c(C#N)c32)n1)[C@@H]1CCCN1C [II-31] |
|  | 5.59 | <24 | 0.54 |  | C[C@H](Oc1cc([C@H]2CCN(C)C2)nc(-c2noc3c2CCC[C@@]32CCCc3sc(N)c(C#N)c32)n1)[C@@H]1CCCN1C [II-38] |
|  | 5.27 | <24 | 0.48 |  | C[C@H](Oc1cc(-n2ccc(C(=O)O)n2)nc(-c2noc3c2CCC[C@@]32CCCc3sc(N)c(C#N)c32)n1)[C@@H]1CCCN1C [II-24] |
|  | 5.26 | <24 | 0.71 |  | C[C@H](Oc1cc([C@@H]2CCN(C)C2)nc(-c2noc3c2CCC[C@@]32CCCc3sc(N)c(C#N)c32)n1)[C@@H]1CCCN1C [II-37] |
|  | 5.30 | <24 | 0.24 |  | C[C@H](Oc1cc(N2CCN(C)C3(COC3)C2)nc(-c2noc3c2CCC[C@@]32CCCc3sc(N)c(C#N)c32)n1)[C@@H]1CCCN1C [II-13] |
|  | 5.02 | 51 | 0.09 |  | C[C@H](Oc1cc(-c2cnn(C)n2)nc(-c2noc3c2CCC[C@@]32CCCc3sc(N)c(C#N)c32)n1)[C@@H]1C[C@@H](F)CN1C [II-28] |
|  | 7.48 | <24 | 0.15 |  | C[C@H](Oc1cc(-n2ccc(C(=O)NC3COC3)n2)nc(-c2noc3c2CCC[C@@]32CCCc3sc(N)c(C#N)c32)n1)[C@@H]1CCCN1C [II-25] |
|  | 6.95 | 54 | 0.06 |  | C[C@H](Oc1cc(-n2ccsc2=O)nc(-c2noc3c2CCC[C@@]32CCCc3sc(N)c(C#N)c32)n1)[C@@H]1CCCN1C [II-135] |
